Molecules are shown by their SMILES.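 Assay format: 96-well plates, 48-hour exposure. At the GI50, growth is halved.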 Activity calls are given as the source filed them. No stated cut-off is given here; in the data, active = GI50 up to about 1.1 µM and inactive = higher.

Among the test systems are SNB-19; SF-295; NCI-H460; HOP-92; NCI-H522; M14; LOX IMVI; MDA-MB-231; Malme-3M; A549; MOLT-4; OVCAR-8; MDA-N; DU-145; T47D; COLO 205; NCI-H226; TK-10; EKVX.
Holding throughout (assay): NCI-60 cell line screen, 48 h

Turning to `O=C(O)c1ccccc1NC(c1ccccc1)c1ccc2cccnc2c1O` (centres undefined), the GI50 in the test on SNB-19 was 5.24 µM (inactive); with SF-295, 4.37 µM (inactive); with NCI-H460 it was 4.03 µM (inactive); in the test with HOP-92 it was 26.9 µM (inactive); with NCI-H522 it was 3.97 µM (inactive); with M14, 5.81 µM (inactive). Moreover, the GI50 with LOX IMVI is 7.96 µM (inactive); in the test on MDA-MB-231, 12.1 µM (inactive); with Malme-3M it was 15.8 µM (inactive); in the test with A549 it was 5.56 µM (inactive); in the test with MOLT-4, 4.06 µM (inactive); with OVCAR-8 it was 4.85 µM (inactive). Besides, the GI50 is 13.4 µM (inactive) with MDA-N; 18.7 µM (inactive) in the test on DU-145; 11.3 µM (inactive) in the test on T47D; 15.7 µM (inactive) with COLO 205; 4.27 µM (inactive) in the test on NCI-H226; 13.8 µM (inactive) in the test on TK-10. In the test with EKVX, the GI50 was 6.18 µM (inactive).

As for `COC(=O)c1ccc(C)cc1C1CN=NC12Cc1cc(C)ccc1C2=O` (centres undefined), the GI50 with SNB-19 is 18.8 µM (inactive); with SF-295, 7.28 µM (inactive); in the test with NCI-H460, 27.5 µM (inactive); in the test on HOP-92, 21.7 µM (inactive); with NCI-H522, 5.06 µM (inactive); in the test on M14, 9.31 µM (inactive). The GI50 was 10.4 µM (inactive) in the test with LOX IMVI; 14 µM (inactive) in the test on MDA-MB-231; 13.2 µM (inactive) with Malme-3M; 25.4 µM (inactive) in the test with A549; 10.3 µM (inactive) in the test with MOLT-4; 27.2 µM (inactive) in the test on OVCAR-8. Further, the GI50 is 2.37 µM (inactive) in the test on MDA-N; 34 µM (inactive) in the test on DU-145; 20.8 µM (inactive) in the test on T47D; 6.44 µM (inactive) in the test with COLO 205; 21.2 µM (inactive) with NCI-H226; 22.8 µM (inactive) in the test with TK-10. Besides, in the test with EKVX, the GI50 was 23.4 µM (inactive).

`COC(=O)c1sc(=O)sc1SCc1cccc(CSc2sc(=O)sc2C(=O)OC)c1`: the GI50 with SNB-19 was 22.3 µM (inactive); in the test with SF-295, 26.2 µM (inactive); in the test on NCI-H460 it was 35.1 µM (inactive); in the test on HOP-92, 24.2 µM (inactive); with NCI-H522, 29 µM (inactive); in the test on M14, 36.4 µM (inactive). Further, the GI50 with LOX IMVI was > 100 µM (inactive); in the test with MDA-MB-231 it was 24.9 µM (inactive); in the test on Malme-3M it was 18.7 µM (inactive); with A549, 51.4 µM (inactive); with MOLT-4 it was 47.6 µM (inactive); in the test on OVCAR-8 it was 37.2 µM (inactive). In addition, the GI50 was 68.9 µM (inactive) in the test with MDA-N; 92.3 µM (inactive) in the test on DU-145; 38.9 µM (inactive) in the test on T47D; > 100 µM (inactive) with COLO 205; 61.4 µM (inactive) in the test on NCI-H226; 23.2 µM (inactive) in the test on TK-10. The GI50 in the test on EKVX is 42.8 µM (inactive).

`C[C@@H](Cl)[C@H]1CCCN(Cc2ccc(Br)cc2)C1`: the GI50 in the test with SNB-19, in the test with SF-295, in the test on NCI-H460, in the test on HOP-92, in the test on NCI-H522 and in the test with M14 was > 12.5 µM (inactive) each time. The GI50 in the test on LOX IMVI, with MDA-MB-231, with Malme-3M, in the test with A549, with MOLT-4 and with OVCAR-8 was > 12.5 µM (inactive) throughout. The GI50 with MDA-N, with DU-145, with T47D, in the test with COLO 205, in the test with NCI-H226 and with TK-10 was > 12.5 µM (inactive) each time. Besides, in the test with EKVX, the GI50 was > 12.5 µM (inactive).

With `BrC1=C(Br)C2(SCCS2)[C@H]2C[C@@H]1c1ccccc12`, the GI50 with SNB-19 was > 100 µM (inactive); in the test on SF-295, > 100 µM (inactive); in the test on NCI-H460, 33.5 µM (inactive); in the test on HOP-92, > 59.2 µM (inactive); with NCI-H522, 13.2 µM (inactive); in the test on M14, > 79.8 µM (inactive). The GI50 with LOX IMVI is 43.7 µM (inactive); in the test on MDA-MB-231, 60.8 µM (inactive); in the test on Malme-3M, 32.1 µM (inactive); with A549, > 54.1 µM (inactive); in the test on MOLT-4 it was 13.9 µM (inactive); in the test on OVCAR-8 it was > 100 µM (inactive). In addition, the GI50 in the test on MDA-N is 4.07 µM (inactive); in the test with DU-145 it was 47.3 µM (inactive); in the test with T47D, 24.6 µM (inactive); in the test with COLO 205, 29.4 µM (inactive); with NCI-H226, 64.1 µM (inactive); in the test on TK-10, > 100 µM (inactive). In addition, the GI50 in the test with EKVX is 36.9 µM (inactive).

Turning to `Nc1c2ccccc2nc2c1ccc1ncccc12`, the GI50 was 36.8 µM (inactive) in the test on SNB-19; 21.8 µM (inactive) in the test with SF-295; 5.83 µM (inactive) in the test on NCI-H460; 22.8 µM (inactive) in the test on HOP-92; 12 µM (inactive) in the test on NCI-H522; 19.4 µM (inactive) with M14. The GI50 with LOX IMVI was 6.03 µM (inactive); with MDA-MB-231 it was 20.8 µM (inactive); in the test with Malme-3M, 12.4 µM (inactive); in the test with A549 it was 21.9 µM (inactive); in the test with MOLT-4, 5.15 µM (inactive); with OVCAR-8, 21.2 µM (inactive). Moreover, the GI50 is 28.1 µM (inactive) in the test with MDA-N; 28.2 µM (inactive) with DU-145; 27.5 µM (inactive) with T47D; 20.3 µM (inactive) in the test with COLO 205; 13.9 µM (inactive) in the test with NCI-H226; 34.1 µM (inactive) in the test with TK-10. The GI50 in the test on EKVX is 27.1 µM (inactive).

`Cc1ccc(-c2n[nH]c(=O)[nH]2)cc1`: the GI50 in the test on SNB-19 is > 100 µM (inactive); with SF-295 it was > 49 µM (inactive); with NCI-H460, > 100 µM (inactive); with HOP-92, 44.9 µM (inactive); in the test with NCI-H522, > 100 µM (inactive); with M14 it was > 100 µM (inactive). The GI50 with LOX IMVI, in the test with MDA-MB-231, in the test on Malme-3M, in the test with A549, in the test with MOLT-4 and with OVCAR-8 was > 100 µM (inactive) throughout. Besides, the GI50 with MDA-N was > 100 µM (inactive); in the test with DU-145 it was > 100 µM (inactive); with T47D it was > 46.5 µM (inactive); in the test with COLO 205, > 100 µM (inactive); with NCI-H226, > 100 µM (inactive); in the test on TK-10, > 100 µM (inactive). Also, the GI50 with EKVX is 45.8 µM (inactive).

For the compound `COC(OC)C1OC(CO)C(n2ccc(N)nc2=O)C1O` (centres undefined), the GI50 with SNB-19, in the test with SF-295, with NCI-H460, with HOP-92, with NCI-H522 and in the test with M14 was > 100 µM (inactive) each time. The GI50 in the test with LOX IMVI, in the test on MDA-MB-231, in the test on Malme-3M, with A549, in the test on MOLT-4 and with OVCAR-8 was > 100 µM (inactive) in each case. Besides, the GI50 with MDA-N, in the test on DU-145, in the test on T47D, in the test with COLO 205, in the test with NCI-H226 and with TK-10 was > 100 µM (inactive) throughout. The GI50 with EKVX is > 100 µM (inactive).

Consider `C[C@H]1CCC/C=C/[C@@H]2C[C@H](OC(=O)CN(C)C)C[C@H]2[C@H](O)/C=C/C(=O)O1`, for which the GI50 in the test with SNB-19 was 0.319 µM (active); with SF-295 it was 0.165 µM (active); in the test with NCI-H460, 0.365 µM (active); with HOP-92, 1.03 µM (active); in the test with NCI-H522, 0.425 µM (active); in the test with M14 it was 0.0778 µM (active). Further, the GI50 is 0.0861 µM (active) in the test on LOX IMVI; 0.0152 µM (active) in the test with MDA-MB-231; 0.0738 µM (active) in the test on Malme-3M; 0.286 µM (active) with A549; 0.187 µM (active) in the test with MOLT-4; 0.097 µM (active) in the test on OVCAR-8. The GI50 in the test on MDA-N is 0.135 µM (active); in the test on DU-145, 0.401 µM (active); with T47D, 0.329 µM (active); with COLO 205, 0.0476 µM (active); in the test on NCI-H226, 0.0288 µM (active); with TK-10, 0.1 µM (active). The GI50 in the test on EKVX is 0.188 µM (active).

Consider `COc1ccc(C(SC2C(O)C(CO)OC2n2ccc(N)nc2=O)(c2ccccc2)c2ccc(OC)cc2)cc1` (centres undefined), for which the GI50 with SNB-19 is 16 µM (inactive); with SF-295, 6.79 µM (inactive); with NCI-H460, 12.1 µM (inactive); with HOP-92 it was 17.5 µM (inactive); with NCI-H522, 13.4 µM (inactive); in the test on M14 it was 12.7 µM (inactive). Besides, the GI50 in the test with LOX IMVI is 17.7 µM (inactive); with MDA-MB-231, 16 µM (inactive); with Malme-3M, 15 µM (inactive); in the test with A549, 18.5 µM (inactive); with MOLT-4, 19.1 µM (inactive); in the test with OVCAR-8, 28.1 µM (inactive). In addition, the GI50 in the test with MDA-N was 10.1 µM (inactive); in the test on DU-145, 18.5 µM (inactive); in the test on T47D, 19.1 µM (inactive); with COLO 205, 14.6 µM (inactive); in the test on NCI-H226 it was 14.2 µM (inactive); in the test on TK-10, 26.8 µM (inactive). In addition, the GI50 with EKVX was 18.1 µM (inactive).

`C/C(=N/NC(=S)N(Cc1ccccn1)Cc1ccccn1)c1cnccn1`: the GI50 with SNB-19 is 0.962 µM (active); in the test with SF-295, 0.374 µM (active); in the test on NCI-H460 it was 0.601 µM (active); in the test with HOP-92 it was 1.23 µM (inactive); with NCI-H522, 0.0381 µM (active); in the test with M14, 0.0622 µM (active). The GI50 in the test with LOX IMVI was 0.133 µM (active); in the test on MDA-MB-231, 0.646 µM (active); in the test on Malme-3M, 0.0472 µM (active); with A549, 0.329 µM (active); in the test on MOLT-4, 0.0948 µM (active); with OVCAR-8, 0.0303 µM (active). Moreover, the GI50 in the test with MDA-N is 2.67 µM (inactive); in the test with DU-145, 0.713 µM (active); with T47D it was 0.231 µM (active); in the test on COLO 205, 0.0861 µM (active); with NCI-H226, < 0.0178 µM (active); in the test with TK-10, 0.071 µM (active). The GI50 in the test on EKVX is 0.189 µM (active).

Source of the values: ChEMBL document CHEMBL1201862, “PubChem BioAssay data set” (2004).
